Measurements: US20210051954A1, “METHOD FOR INCREASING THE RESISTANCE OF A CEREAL PLANT” (BASF AGROCHEMICAL PRODUCTS B.V., priority 2018, published 2021)

Tests used:
Wheat = assay: % germination in wheat by seed treatment, 21 days after planting; format: in vivo; conditions: 0.5 mg of (la)/plant, 30% FS formulation
Excerpt: (§1) Watering cycles—The level of stress is created by watering the pots based on the % of pot moisture as measured by wireless probes. Depending on weather conditions the number of cycles vary as needed.
(§2) The % of moisture triggers the watering process independent of the time that it takes to reach this point.
(§3) In “well-watered conditions” or “standard watered conditions”, in pots the % moisture is kept above 80%.
(§4) In “drought conditions”, in the pots re-watering happens at 45% pot moisture.
(§5) “Untreated” means that the seed has not been exposed to the compound I (a).
(§6) The treaments(s) were applied directly over the planted seed at the rates found in the table(s) below. Seeds were then covered and the % rate of germination was calculated at 21 days after planting.
(§7) The % rate of germination was calculated as the number of seeds that emerged divided by the number of seeds planted and presented as as a percentage.
(§8) Seeds were planted in two types of soil (Mineral and Organic) which were free of pest (insects, weeds, or diseases) to avoid interactions with the treatments applied
Example 2: Increase % Germination in Wheat by Seed Treatement

Maize (Corn) = assay: % germination in maize (corn) by drench treatment, 21 days after planting; format: in vivo; conditions: 30% FS formulation; for % Germination in Mineral soil in Standard conditions: standard watered conditions (moisture above 80%); for % Germination in Organic soil in Draught conditions: drought conditions (re-watering at 45% pot moisture)
Excerpt: as §1, §2, §3, §4, §5, §6, §7, §8
Example 1: Increase in % of Germination in Maize (Corn) by Drench Treatment

In the case of `CN(C(=O)c1ccccc1)c1cccc(C(=O)Nc2c(Br)cc(C(F)(C(F)(F)F)C(F)(F)F)cc2C(F)(F)F)c1F` [(la)], the “% Germination in Mineral soil in Standard conditions” value (from here on “% Germination in Mineral soil”) (Wheat; mineral soil, standard watered conditions (moisture above 80%)) is reported as 95%, the “% Germination in Organic soil in Draught conditions” value (Wheat; organic soil, drought conditions (re-watering at 45% pot moisture)) is reported as 95% and the “% Germination in Organic soil in Standard conditions” value (Wheat; organic soil, standard watered conditions (moisture above 80%)) is reported as 100%. The “% Germination in Mineral soil” value (Maize (Corn); 0.5 mg of (la)/plant) was 100%, the “% Germination in Organic soil in Draught conditions” value (Maize (Corn); 0.5 mg of (la)/plant) was 98% and the “% Germination in Mineral soil” value (Maize (Corn); 1 mg of (la)/plant) was 100%. For the same molecule, the “% Germination in Organic soil in Draught conditions” value (Maize (Corn); 1 mg of (la)/plant) was 100%.
